Results from US11919908B2, “Substituted pyrrolo[2,3-d]pyrimidine compounds as JAK2 V617F inhibitors” (Incyte Corporation, priority 2020, dated 2024).

How the values were obtained:
[1] = biological target: T1, pseudo-kinase domain (JH2) of human Wild Type JAK2 (Homo sapiens, UniProt O60674, F794H/W659A/W777A); experiment: JAK2 LanthaScreen JH2-WT Binding Assay; conditions: 50 nM Fluorescent JAK2-JH2 Tracer, 1 hour at 25° C.
T1 construct: pseudo-kinase domain (JH2, amino-acids 536-812 with 3 surface mutations W659A, W777A, F794H); His (C); purchased BPS Bioscience 79463; host or cells: baculovirus expression system
Procedure: (§1) Example B. JAK2 LanthaScreen JH2-WT Binding Assay JAK2 JH2-WT binding assay utilizes pseudo-kinase domain (JH2, amino-acids 536-812 with 3 surface mutations […]) of human Wild Type JAK2 expressed as C-terminal His-Avi-tagged, biotinylated protein in a baculovirus expression system (BPS Bioscience, Catalog #79463). The assay was conducted in black 384-well polystyrene plates in a final reaction volume of 20 μL. JAK2 JH2-WT (0.145 nM) was incubated with compounds (100 nL serially diluted in DMSO) in the presence of 50 nM Fluorescent JAK2-JH2 Tracer (MedChem Express Catalog #HY-102055) and 0.25 nM Streptavidin-Tb cryptate (Cisbio Part #610SATLB) in assay buffer (50 mM Tris, pH=7.5, 10 mM MgCl2, 0.01% Brij-35, 0.1% BSA, 1 mM EGTA, 5% Glycerol and 5 mM DTT). Non-specific binding was accessed in the presence of 2 mM ATP. After incubation for 1 hour at 25° C., LanthaScreen signals were read on a PHERAstar FS plate reader (BMG LABTECH). Data was analyzed with IDBS XLfit and GraphPad Prism 5.0 software using a four parameter dose response curve to determine IC50 for each compound.

[2] = biological target: T2, catalytic domain (JH1) of human JAK2 (Homo sapiens, UniProt O60674); experiment: JAK2 LanthaScreen JH1 Binding Assay; conditions: 50 nM Fluorescent JAK2-JH1 Tracer, 2 hours at 25° C.
T2 construct: catalytic domain (JH1, amino acids 826-1132) of human JAK2; FLAG (N); purchased Carna Biosciences 08-445-20N; host or cells: baculovirus expression system
Procedure: Example A. JAK2 LanthaScreen […] Binding Assay JAK2 JH1 binding assay utilizes catalytic domain (JH1, amino acids 826-1132) of human JAK2 expressed as N-terminal FLAG-tagged, biotinylated protein in a baculovirus expression system (Carna Biosciences, Product #08-445-20N). The assay was conducted in black 384-well polystyrene plates in a final reaction volume of 20 μL. JAK2 JH1 (1.5 nM) was incubated with compounds (100 nL serially diluted in DMSO) in the presence of 50 nM Fluorescent JAK2-JH1 Tracer and 0.5 nM Streptavidin-Tb cryptate (Cisbio Part #610SATLB) in assay buffer (50 mM Tris, pH=7.5, 10 mM MgCl2, 0.01% Brij-35, 0.1% BSA, 1 mM EGTA, 5% Glycerol and 5 mM DTT). Non-specific binding was accessed in the presence of 2 mM ATP. After incubation for 2 hours at 25° C., LanthaScreen signals were read on a PHERAstar FS plate reader (BMG LABTECH). Data was analyzed with IDBS XLfit and GraphPad Prism 5.0 software using a four parameter dose response curve to determine IC50 for each compound.

[3] = biological target: T3, pseudo-kinase domain (JH2) of human V617F mutant JAK2 (Homo sapiens, UniProt O60674, F794H/V617F/W659A/W777A); experiment: JAK2 LanthaScreen JH2-V617F Binding Assay; conditions: 50 nM Fluorescent JAK2-JH2 Tracer, 1 hour at 25° C.
T3 construct: pseudo-kinase domain (JH2, amino-acids 536-812 with 3 surface mutations W659A, W777A, F794H); His (C); purchased BPS Bioscience 79498; host or cells: baculovirus expression system
Procedure: as §1, with “C.” for “B.”, “JH2-V617F” for “JH2-WT”, “V617F mutant” for “Wild Type”, “#79498).” for “#79463).”, “JH2-V617F (0.26” for “JH2-WT (0.145”

T1 sequence (O60674 536-812 W659A/W777A/F794H): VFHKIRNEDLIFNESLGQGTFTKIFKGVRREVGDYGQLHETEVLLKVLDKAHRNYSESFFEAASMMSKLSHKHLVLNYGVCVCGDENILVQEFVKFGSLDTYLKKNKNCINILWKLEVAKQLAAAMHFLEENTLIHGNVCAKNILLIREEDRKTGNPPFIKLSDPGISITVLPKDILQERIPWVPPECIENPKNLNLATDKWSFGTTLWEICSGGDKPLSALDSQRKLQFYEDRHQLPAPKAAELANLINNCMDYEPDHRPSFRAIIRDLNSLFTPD
T3 sequence (O60674 536-812 V617F/W659A/W777A/F794H): as the sequence (O60674 536-812 W659A/W777A/F794H) above, with V82F counted along it
T2 sequence (O60674 826-1132): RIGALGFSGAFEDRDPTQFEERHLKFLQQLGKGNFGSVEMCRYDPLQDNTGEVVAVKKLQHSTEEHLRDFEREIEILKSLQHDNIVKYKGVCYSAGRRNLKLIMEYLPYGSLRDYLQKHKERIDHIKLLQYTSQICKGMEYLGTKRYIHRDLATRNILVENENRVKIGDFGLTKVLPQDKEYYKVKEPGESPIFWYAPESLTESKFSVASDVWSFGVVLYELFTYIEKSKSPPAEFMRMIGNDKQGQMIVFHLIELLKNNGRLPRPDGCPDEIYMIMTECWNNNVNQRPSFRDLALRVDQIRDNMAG

| IC50 [1] [µM] | IC50 [2] [µM] | IC50 [3] [µM] | Molecule |
| --- | --- | --- | --- |
| 1 to 2.5 | > 2.5 | 1 to 2.5 | CN1CCC(c2ccc(-c3c(-c4ccc(S(=O)(=O)N(C)C)cc4)[nH]c4nc(N)[nH]c(=O)c34)cc2)CC1 [Example 8, 4-(2-Amino-5-(4-(1-methylpiperidin-4-yl)phenyl)-4-oxo-4,7-dihydro-3H-pyrrolo[2,3-d]pyrimidin-6-yl)-N,N-dimethylbenzene sulfonamide] |
| > 2.5 | > 2.5 | 1 to 2.5 | CN(C)S(=O)(=O)c1ccc(-c2[nH]c3nc(N)[nH]c(=O)c3c2-c2ccccc2OC(F)F)cc1 [Example 19, 4-(2-Amino-5-(2-(difluoromethoxy)phenyl)-4-oxo-4,7-dihydro-3H-pyrrolo[2,3-d]pyrimidin-6-yl)-N,N-dimethylbenzene sulfonamide] |
| 1 to 2.5 | > 2.5 | 1 to 2.5 | CN(C)S(=O)(=O)c1ccc(-c2[nH]c3nc(N)[nH]c(=O)c3c2-c2cnn(Cc3ccncc3)c2)cc1 [Example 32, 4-(2-Amino-4-oxo-5-(1-(pyridin-4-ylmethyl)-1H-pyrazol-4-yl)-4,7-dihydro-3H-pyrrolo[2,3-d]pyrimidin-6-yl)-N,N-dimethylbenzene sulfonamide] |
| > 2.5 | > 2.5 | > 2.5 | CN(C)S(=O)(=O)c1ccc(-c2[nH]c3nc(N)[nH]c(=O)c3c2-c2ccccc2CC#N)cc1 [Example 15, 4-(2-Amino-5-(2-(cyanomethyl)phenyl)-4-oxo-4,7-dihydro-3H-pyrrolo[2,3-d]pyrimidin-6-yl)-N,N-dimethylbenzene sulfonamide] |
| 0.1 to 0.5 | 0.5 to 1 | 0.1 to 0.5 | CN(C)S(=O)(=O)c1ccc(-c2[nH]c3nc(N)[nH]c(=O)c3c2-c2ccccc2)cc1 [Example 38, 4-(2-Amino-4-oxo-5-phenyl-4,7-dihydro-3H-pyrrolo[2,3-d]pyrimidin-6-yl)-N,N-dimethylbenzene sulfonamide] |
| 0.1 to 0.5 | > 2.5 | 0.1 to 0.5 | CN(C)S(=O)(=O)c1ccc(-c2[nH]c3nc(N)[nH]c(=O)c3c2-c2cccc3c2OCO3)cc1 [Example 44, 4-(2-Amino-5-(benzo[d] [1,3]dioxol-4-yl)-4-oxo-4,7-dihydro-3H-pyrrolo[2,3-d]pyrimidin-6-yl)-N,N-dimethylbenzene sulfonamide] |
| 0.5 to 1 | > 2.5 | 0.5 to 1 | COc1cc(C(N)=O)ccc1-c1c(-c2ccc(S(=O)(=O)N(C)C)cc2)[nH]c2nc(N)[nH]c(=O)c12 [Example 23, 4-(2-Amino-6-(4-(N,N-dimethylsulfamoyl)phenyl)-4-oxo-4,7-dihydro-3H-pyrrolo[2,3-d]pyrimidin-5-yl)-3-methoxy-benzamide] |

Second part, the molecule before the results:

| Molecule | IC50 [1] [µM] | IC50 [2] [µM] | IC50 [3] [µM] |
| --- | --- | --- | --- |
| CN(C)S(=O)(=O)c1ccc(-c2[nH]c3nc(N)[nH]c(=O)c3c2-c2cccc(CO)c2)cc1 [Example 4, 4-(2-Amino-5-(3-(hydroxymethyl)phenyl)-4-oxo-4,7-dihydro-3H-pyrrolo [2,3-d]pyrimidin-6-yl)-N,N-dimethyl-benzene sulfonamide] | 0.5 to 1 | 1 to 2.5 | 0.5 to 1 |
| CN(C)S(=O)(=O)c1ccc(-c2[nH]c3nc(N)[nH]c(=O)c3c2-c2ccccc2Cl)cc1 [Example 5, 4-(2-Amino-5-(2-chlorophenyl)-4-oxo-4,7-dihydro-3H-pyrrolo[2,3-d]pyrimidin-6-yl)-N,N-dimethylbenzene sulfonamide] | 1 to 2.5 | > 2.5 | 1 to 2.5 |
| 4-(2-Amino-5- (2,3-difluorobenzofuran-6- yl)-4-oxo-4,7-dihydro-3H- pyrrolo[2,3-d]pyrimidin-6- yl)-N,N-dimethylbenzene sulfonamide [Example 26] | 0.5 to 1 | 1 to 2.5 | 0.5 to 1 |
| COc1ccc(-c2c(-c3ccc(S(=O)(=O)N(C)C)cc3)[nH]c3nc(N)[nH]c(=O)c23)c(OC)c1 [Example 42, 4-(2-Amino-5-(2,4-dimethoxyphenyl)-4-oxo-4,7-dihydro-3H-pyrrolo[2,3-d]pyrimidin-6-yl)-N,N-dimethylbenzene sulfonamide] | 0.5 to 1 | > 2.5 | 0.5 to 1 |
